Assay results: patent US20240158418A1 (C4 Therapeutics, Inc., priority 2021, published 2024)
Where two headings read alike, the source gives them in different places.

What was measured:
Type in all cases: cell-based
EGFR L858R-T790M = molecular target: T1, EGFR L858R-T790M (Homo sapiens, UniProt P00533, L858R/T790M); experiment: EGFR degradation, Total EGFR (L858R-specific) HTRF, NCI-H1975; details: 6 hours
T1 construct: NCI-H1975 (harboring EGFR heterozygous L858R-T790M mutations); host or cells: NCI-H1975
T1 sequence (P00533 25-1210 T790M/L858R): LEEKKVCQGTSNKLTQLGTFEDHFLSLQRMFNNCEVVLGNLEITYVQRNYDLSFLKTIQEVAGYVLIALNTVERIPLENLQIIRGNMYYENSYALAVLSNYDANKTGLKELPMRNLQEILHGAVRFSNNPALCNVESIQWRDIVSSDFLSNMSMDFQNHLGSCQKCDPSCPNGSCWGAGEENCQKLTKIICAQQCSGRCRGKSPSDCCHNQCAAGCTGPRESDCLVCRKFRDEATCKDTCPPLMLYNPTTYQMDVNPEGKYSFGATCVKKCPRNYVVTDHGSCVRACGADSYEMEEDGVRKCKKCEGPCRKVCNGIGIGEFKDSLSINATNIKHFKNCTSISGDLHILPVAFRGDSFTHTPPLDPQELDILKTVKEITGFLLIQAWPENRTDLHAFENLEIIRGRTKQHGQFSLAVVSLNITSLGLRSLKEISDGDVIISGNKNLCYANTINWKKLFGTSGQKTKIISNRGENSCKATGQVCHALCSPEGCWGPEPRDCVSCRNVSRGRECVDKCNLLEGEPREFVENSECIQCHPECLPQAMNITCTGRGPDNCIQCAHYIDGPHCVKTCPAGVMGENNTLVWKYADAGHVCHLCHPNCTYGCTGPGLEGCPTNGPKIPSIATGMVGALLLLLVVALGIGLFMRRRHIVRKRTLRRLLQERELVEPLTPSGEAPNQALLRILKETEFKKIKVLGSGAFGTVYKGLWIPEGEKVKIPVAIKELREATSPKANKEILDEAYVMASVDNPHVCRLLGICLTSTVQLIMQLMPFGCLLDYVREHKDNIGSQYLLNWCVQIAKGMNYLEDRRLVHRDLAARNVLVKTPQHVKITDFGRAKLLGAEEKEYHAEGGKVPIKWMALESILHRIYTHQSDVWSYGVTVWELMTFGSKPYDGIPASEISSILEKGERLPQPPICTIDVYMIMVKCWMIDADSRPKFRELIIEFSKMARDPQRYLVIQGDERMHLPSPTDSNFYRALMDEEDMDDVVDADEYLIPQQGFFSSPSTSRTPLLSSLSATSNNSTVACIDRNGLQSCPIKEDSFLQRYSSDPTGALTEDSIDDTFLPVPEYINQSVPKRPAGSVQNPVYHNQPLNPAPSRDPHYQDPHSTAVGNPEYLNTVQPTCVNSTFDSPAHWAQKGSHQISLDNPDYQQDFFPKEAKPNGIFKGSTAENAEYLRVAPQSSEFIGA
How it was run: (§1)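 HTRF read-outs: pY1068 phospho-EGFR for IC50; total EGFR (pan-EGFR in A431, L858R-specific in mutant lines) for DC50. Compounds were titrated 11 points, half-log, from 10 μM in duplicate onto cells in 10% FBS RPMI, incubated 6 h at 37°C.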

[1] = molecular target: T2, pY1068 EGFR L858R-T790M-C797S (Homo sapiens, UniProt P00533, C797S/L858R/T790M); experiment: Phospho-EGFR (pY1068) inhibition HTRF, NCI-H1975+CS; details: 6 hours, read-out: pEGFR IC50
T2 construct: generated using CRISPR technology to introduce the additional C797S mutation by Horizon Discovery; host or cells: NCI-H1975+CS (CRISPR knock-in of C797S)
Excerpt: (§2) NCI-H1975 (harboring EGFR heterozygous L858R-T790M mutations) and NCI-H3255 (harboring EGFR heterozygous L858R mutation) were purchased from ATCC and NCI, respectively. NCI-H1975+CS (harboring EGFR heterozygous L858R-T790M-C797S mutations) was generated using CRISPR technology to introduce the additional C797S mutation by Horizon Discovery. A431 (harboring EGFR wildtype) was purchased from ATCC. RPMI 1640 no-phenol red medium and fetal bovine serum (FBS) were purchased from Gibco (Grand Island, NY, USA). Cell culture flasks and 384-well microplates were acquired from VWR (Radnor, PA, USA). Phosphorylated (pY1068) EGFR and Total EGFR (using L858R-specific detection antibody and pan-EGFR antibody for EGFR mutant cell lines and EGFR wild-type cell lines, respectively) HTRF assay kits were purchased from Cisbio (Bedford, MA, USA).
(§3) Degradation of EGFR protein containing L858R mutation or wild-type was determined based on quantification of FRET signal using a Total EGFR (L858R-specific or pan-EGFR detecting) HTRF assay kit. Phospho-EGFR (pEGFR) inhibition was determined based on quantification of FRET signal using a pY1068 EGFR HTRF assay kit. In separate assay plates, test compounds were added to the 384-well plate from a top concentration of 10 μM with 11 points, half log titration in duplicates. For each assay, 12.5 uL of cells suspended in assay media (RPMI 1640 no-phenol red medium+10% FBS) at cell densities indicated for each cell line in Table 8 below were dispensed using a multi-channel pipette to 384-well low volume white HTRF microplates containing a duplicate concentration range of test compounds and DMSO controls. The plates were kept at 37° C. with 5% CO2 for 6 hours and then incubated with either phospho EGFR or Total EGFR HTRF detection antibodies according to the cell line and EGFR mutant being assayed. Cells treated in the absence of the test compound were the negative control. Positive control was set by wells containing all reagents but no cells. FRET signal was acquired on EnVision™ Multilabel Reader (PerkinElmer, Santa Clara, CA, USA). Compound concentration that achieves 50% degradation and inhibition was reported as DC50 and IC50, respectively.

pY1068 EGFR L858R = molecular target: T3, pY1068 EGFR L858R (Homo sapiens, UniProt P00533, L858R); experiment: Phospho-EGFR (pY1068) inhibition HTRF, NCI-H3255; details: 6 hours, read-out: pEGFR IC50
T3 construct: NCI-H3255 (harboring EGFR heterozygous L858R mutation); host or cells: NCI-H3255
Excerpt: as §2, §3

EGFR L858R-T790M-C797S = molecular target: T4, EGFR L858R-T790M-C797S (Homo sapiens, UniProt P00533, C797S/L858R/T790M); experiment: EGFR degradation, Total EGFR (L858R-specific) HTRF, NCI-H1975+CS; details: 6 hours
T4 construct: generated using CRISPR technology to introduce the additional C797S mutation by Horizon Discovery; host or cells: NCI-H1975+CS (CRISPR knock-in of C797S)
T4 sequence (P00533 25-1210 T790M/C797S/L858R): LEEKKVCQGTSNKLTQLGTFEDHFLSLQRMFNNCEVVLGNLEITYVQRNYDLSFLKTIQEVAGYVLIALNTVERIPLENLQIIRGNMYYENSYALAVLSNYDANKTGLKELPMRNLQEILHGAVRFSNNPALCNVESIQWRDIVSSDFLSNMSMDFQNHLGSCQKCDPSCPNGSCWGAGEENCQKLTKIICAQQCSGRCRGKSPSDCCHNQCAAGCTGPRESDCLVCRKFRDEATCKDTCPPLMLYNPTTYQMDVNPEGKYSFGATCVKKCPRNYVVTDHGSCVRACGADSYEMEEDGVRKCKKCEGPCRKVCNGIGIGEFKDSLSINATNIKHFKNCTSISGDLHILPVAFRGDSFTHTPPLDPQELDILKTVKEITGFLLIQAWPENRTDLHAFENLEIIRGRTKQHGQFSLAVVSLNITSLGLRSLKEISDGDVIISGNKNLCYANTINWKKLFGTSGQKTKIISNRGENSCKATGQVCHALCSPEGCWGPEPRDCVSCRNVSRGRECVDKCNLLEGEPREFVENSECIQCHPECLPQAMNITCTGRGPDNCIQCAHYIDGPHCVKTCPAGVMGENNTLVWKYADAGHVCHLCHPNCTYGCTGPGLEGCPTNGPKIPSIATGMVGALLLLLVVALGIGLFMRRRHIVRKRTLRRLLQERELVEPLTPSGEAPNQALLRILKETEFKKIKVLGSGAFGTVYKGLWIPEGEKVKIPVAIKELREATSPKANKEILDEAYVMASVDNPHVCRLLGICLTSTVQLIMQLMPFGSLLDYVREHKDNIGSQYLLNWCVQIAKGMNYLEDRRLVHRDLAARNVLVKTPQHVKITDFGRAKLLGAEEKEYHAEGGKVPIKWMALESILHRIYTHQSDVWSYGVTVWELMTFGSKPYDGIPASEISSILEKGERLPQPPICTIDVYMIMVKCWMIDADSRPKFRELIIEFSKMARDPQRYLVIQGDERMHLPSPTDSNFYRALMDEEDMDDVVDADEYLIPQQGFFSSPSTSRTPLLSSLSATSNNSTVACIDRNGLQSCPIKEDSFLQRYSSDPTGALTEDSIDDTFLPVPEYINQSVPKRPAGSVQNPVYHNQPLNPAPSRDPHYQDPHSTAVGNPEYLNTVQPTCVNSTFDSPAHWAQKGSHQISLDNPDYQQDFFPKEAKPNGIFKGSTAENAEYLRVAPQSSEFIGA
How it was run: as §1

EGFR L858R = EGFR L858R (Homo sapiens, UniProt P00533, L858R); experiment: EGFR degradation, Total EGFR (L858R-specific) HTRF, NCI-H3255; design: NCI-H3255 (harboring EGFR heterozygous L858R mutation); host or cells: NCI-H3255; details: 6 hours
Chain of EGFR L858R (P00533 25-1210 L858R): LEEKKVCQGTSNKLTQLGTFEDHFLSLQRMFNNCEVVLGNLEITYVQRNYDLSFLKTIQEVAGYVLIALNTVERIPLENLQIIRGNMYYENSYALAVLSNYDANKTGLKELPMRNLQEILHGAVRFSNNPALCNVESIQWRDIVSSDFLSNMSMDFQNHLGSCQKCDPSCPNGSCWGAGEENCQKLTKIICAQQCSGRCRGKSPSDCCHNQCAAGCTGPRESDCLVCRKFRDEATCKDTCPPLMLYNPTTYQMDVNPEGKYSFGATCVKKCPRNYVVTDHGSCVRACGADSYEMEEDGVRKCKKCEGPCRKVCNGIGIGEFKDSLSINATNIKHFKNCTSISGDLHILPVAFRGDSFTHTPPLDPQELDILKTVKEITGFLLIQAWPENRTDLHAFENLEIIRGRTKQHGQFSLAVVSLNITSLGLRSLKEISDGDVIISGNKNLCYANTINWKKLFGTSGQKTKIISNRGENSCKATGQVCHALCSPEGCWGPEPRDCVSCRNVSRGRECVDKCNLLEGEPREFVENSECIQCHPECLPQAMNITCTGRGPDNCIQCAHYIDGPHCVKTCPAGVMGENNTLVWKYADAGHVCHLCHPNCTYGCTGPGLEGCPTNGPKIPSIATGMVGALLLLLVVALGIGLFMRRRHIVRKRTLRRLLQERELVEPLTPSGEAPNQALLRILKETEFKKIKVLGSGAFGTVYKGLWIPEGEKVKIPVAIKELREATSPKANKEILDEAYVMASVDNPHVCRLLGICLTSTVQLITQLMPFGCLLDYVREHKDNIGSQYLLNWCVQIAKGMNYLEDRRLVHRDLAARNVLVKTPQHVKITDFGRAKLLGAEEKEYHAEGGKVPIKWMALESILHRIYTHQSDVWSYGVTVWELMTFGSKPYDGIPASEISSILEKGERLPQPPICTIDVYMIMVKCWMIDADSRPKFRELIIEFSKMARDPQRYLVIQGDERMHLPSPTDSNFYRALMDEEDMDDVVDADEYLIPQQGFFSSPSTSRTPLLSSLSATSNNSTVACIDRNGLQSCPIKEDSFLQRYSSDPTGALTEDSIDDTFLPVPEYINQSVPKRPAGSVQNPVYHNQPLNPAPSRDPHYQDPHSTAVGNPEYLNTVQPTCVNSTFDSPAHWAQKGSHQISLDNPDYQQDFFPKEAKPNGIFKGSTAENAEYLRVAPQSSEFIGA
How it was run: as §1

pY1068 EGFR L858R-T790M = molecular target: T5, pY1068 EGFR L858R-T790M (Homo sapiens, UniProt P00533, L858R/T790M); experiment: Phospho-EGFR (pY1068) inhibition HTRF, NCI-H1975; details: 6 hours, read-out: pEGFR IC50
T5 construct: NCI-H1975 (harboring EGFR heterozygous L858R-T790M mutations); host or cells: NCI-H1975
T5 sequence (P00533 25-1210 T790M/L858R): as the sequence (P00533 25-1210 T790M/L858R) above
Excerpt: as §2, §3

[2] = system: BaF3 cells expressing EGFR L858R-T790M-L792H; experiment: Ba/F3 EGFR cell viability (CellTiter-Glo), L858R-T790M-L792H; details: Mus musculus, read-out: CTGlo (GI50)
Excerpt: (§4) RPMI 1640 media, cell culture flasks, and 384-well microplates were purchased from VWR (Radnor, PA, USA). Fetal bovine serum (FBS) was purchased from Life Technologies (Carlsbad, CA, USA) and CellTiter-Glo® was purchased from Promega (Madison, WI, USA). The Ba/F3 parental cell line was purchased from CrownBio (Santa Clara, CA). BaF3 cell lines ectopically expressing the EGFR mutations L858R, L858R-T790M, L858R-C797S, and L858R-T790M-C797S were purchased from CrownBio and EGFR mutations L858R-L718Q, L858R-T790M-L718Q, L858R-L792H, and L858R-T790M-L792H, were purchased from Signosis (Santa Clara, CA).
(§5) Cell viability was assessed based on the quantification of ATP using the CellTiter-Glo® assay (Promega, Madison, WI, USA). To determine the effect of compounds on cell viability, all Ba/F3 cell lines were plated at a cell density of 2000 cells/well in 384-well plates using RPMI 1640+10% FBS and treated with compounds of interest using a 10-point half-log dilution series in duplicate for 72 hours, with the highest dose set at […]. CellTiter-Glo® reagent was then added and luminescence signals were measured using an EnVision™ Multimode plate reader (Perkin Elmer, Santa Clara, CA). For data normalization, cells untreated with the test compounds at Time=72 hours were set to 100% (equivalent to maximal cell growth after 72 hours); cells untreated with the test compounds at Time=0 hours were set to 0% (equivalent to cytostasis); and media-only wells were set to −100% (equivalent to complete cytotoxicity). % Viability was determined by normalizing the signal with positive and DMSO treated negative controls on the same microtiter plate. The half-maximal inhibition of cell growth (GI50) is computed from where the fitted curve crosses 50% while the half-maximal lethal dose (LD50) is computed from where the fitted curve crosses −50%.

[3] = system: BaF3 cells expressing EGFR L858R-T790M-C797S; experiment: Ba/F3 EGFR cell viability (CellTiter-Glo), L858R-T790M-C797S; details: Mus musculus, read-out: CTGlo (GI50)
Excerpt: as §4, §5

[4] = system: BaF3 cells expressing EGFR L858R-L792H; experiment: Ba/F3 EGFR cell viability (CellTiter-Glo), L858R-L792H; details: Mus musculus, read-out: CTGlo (GI50)
Excerpt: as §4, §5

[5] = system: BaF3 cells expressing EGFR L858R-T790M-L718Q; experiment: Ba/F3 EGFR cell viability (CellTiter-Glo), L858R-T790M-L718Q; details: Mus musculus, read-out: CTGlo (GI50)
Excerpt: as §4, §5

[6] = system: BaF3 cells expressing EGFR L858R-L718Q; experiment: Ba/F3 EGFR cell viability (CellTiter-Glo), L858R-L718Q; details: Mus musculus, read-out: CTGlo (GI50)
Excerpt: as §4, §5

[7] = H1975 (L858R-T790M), read-out: tEGFR DC50
[8] = Table 9A, NCI-H1975 cells, Total EGFR HTRF, read-out: H1975 EGFR DC50
[9] = Table 9B, NCI-H1975 cells, Total EGFR HTRF, read-out: H1975 EGFR DC50
[10] = Table 9B, NCI-H1975 C797S clone, Total EGFR HTRF, read-out: H1975 C797S clone EGFR DC50
[11] = Table 9B, NCI-H3255 cells, Total EGFR HTRF, read-out: H3255 EGFR DC50

| Structure (SMILES) | DC50 (EGFR L858R-T790M; [7]) | DC50 (EGFR L858R-T790M; [8]) | IC50 (pY1068 EGFR L858R-T790M) | DC50 (EGFR L858R-T790M; [9]) | DC50 (EGFR L858R-T790M-C797S; [10]) | DC50 (EGFR L858R; [11]) | other results |
| --- | --- | --- | --- | --- | --- | --- | --- |
| O=C1CCC(Nc2ccc(C3CCN(CC(=O)N4CC5(C4)CN(c4ccc(-c6cc(F)c7c(c6)C(=O)N(C(C(=O)Nc6nccs6)c6ncn8c6CCC8)C7)cc4)C5)CC3(F)F)cc2)C(=O)N1 (single isomer, unassigned) [Compound 4, 2-(6,7-dihydro-5H-pyrrolo[1,2-c]imidazol-1-yl)-2-(6-(4-(6-(2-(4-(4-((2,6-dioxopiperidin-3-yl)amino)phenyl)-3,3-difluoropiperidin-1-yl)acetyl)-2,6-diazaspiro[3.3]heptan-2-yl)phenyl)-4-fluoro-1-oxoisoindolin-2-yl)-N-(thiazol-2-yl)acetamide] | 15 nM | < 50 nM | 15 nM | – | – | – | IC50 [1]: 22 nM; IC50 (pY1068 EGFR L858R): 16 nM; DC50 (EGFR L858R-T790M-C797S; H1975 + CS (L858R-T790M-C797S), read-out: tEGFR DC50): 33 nM; DC50 (EGFR L858R; H3255 (L858R), read-out: tEGFR DC50): 17 nM |
| O=C1CC[C@H](Nc2ccc(N3CCC(O)(CC(=O)N4CCC5(CC4)CN(c4ccc(-c6cc(F)c7c(c6)C(=O)N(C(C(=O)Nc6nccs6)c6ncn8c6CCC8)C7)cc4)C5)CC3)c(F)c2)C(=O)N1 (stereo partly drawn) [Compound 9, 2-(6,7-dihydro-5H-pyrrolo[1,2-c]imidazol-1-yl)-2-[6-[4-[7-[2-[1-[4-[[(3S)-2,6-dioxo-3-piperidyl]amino]-2-fluoro-phenyl]-4-hydroxy-4-piperidyl]acetyl]-2,7-diazaspiro[3.5]nonan-2-yl]phenyl]-4-fluoro-1-oxo-isoindolin-2-yl]-N-thiazol-2-yl-acetamide] | 24 nM | < 50 nM | 30 nM | – | – | – | GI50 [2]: 33 nM; GI50 [3]: 16 nM; GI50 [4]: 10 nM; GI50 [5]: 82 nM; GI50 [6]: 23 nM |
| O=C1CC[C@H](Nc2ccc(N3CCC(O)(CC(=O)N4CC5(CCN(c6ccc(-c7cc(F)c8c(c7)C(=O)N(C(C(=O)Nc7nccs7)c7ncn9c7CCC9)C8)cc6)CC5)C4)CC3)c(F)c2)C(=O)N1 (stereo partly drawn) [Compound 12] | 15 nM | < 50 nM | 20 nM | – | – | – | – |

The next lines start with results.

| DC50 (EGFR L858R-T790M; [7]) | DC50 (EGFR L858R-T790M; [8]) | IC50 (pY1068 EGFR L858R-T790M) | DC50 (EGFR L858R-T790M; [9]) | DC50 (EGFR L858R-T790M-C797S; [10]) | DC50 (EGFR L858R; [11]) | Structure (SMILES) | other results |
| --- | --- | --- | --- | --- | --- | --- | --- |
| – | – | – | < 50 nM | < 50 nM | < 50 nM | O=C1CCC(Nc2ccc(C3CCN(CC(=O)N4CCC(NC(=O)c5ccc(C#Cc6cc(F)c7c(c6)C(=O)N(C(C(=O)Nc6nccs6)c6ncn8c6CCC8)C7)cn5)CC4)CC3)cc2)C(=O)N1 (stereo not drawn) [Compound 97, 5-((2-(1-(6,7-dihydro-5H-pyrrolo[1,2-c]imidazol-1-yl)-2-oxo-2-(thiazol-2-ylamino)ethyl)-7-fluoro-3-oxoisoindolin-5-yl)ethynyl)-N-(1-(2-(4-(4-((2,6-dioxopiperidin-3-yl)amino)phenyl)piperidin-1-yl)acetyl)piperidin-4-yl)picolinamide] | – |
| – | – | – | < 50 nM | < 50 nM | < 50 nM | Cn1nc(N2CCC(=O)NC2=O)c2ccc([C@@H]3CCN(CC(=O)N4CC5(C4)CN(c4ccc(-c6cc(F)c7c(c6)C(=O)N(C(C(=O)Nc6nccs6)c6ncn8c6CCC8)C7)cc4)C5)CC3(F)F)cc21 (stereo partly drawn) [Compound 94, 2-(6,7-dihydro-5H-pyrrolo[1,2-c]imidazol-1-yl)-2-(6-(4-(6-(2-((S)-4-(3-(2,4-dioxotetrahydropyrimidin-1(2H)-yl)-1-methyl-1H-indazol-6-yl)-3,3-difluoropiperidin-1-yl)acetyl)-2,6-diazaspiro[3.3]heptan-2-yl)phenyl)-4-fluoro-1-oxoisoindolin-2-yl)-N-(thiazol-2-yl)acetamide] | – |
| – | – | – | < 50 nM | < 50 nM | < 50 nM | O=C1CC[C@@H](Nc2ccc(N3CCC(O)(CC(=O)N4CC5(C4)CN(c4ccc(-c6cc(F)c7c(c6)C(=O)N(C(C(=O)Nc6nccs6)c6ncn8c6CCC8)C7)cc4)C5)CC3)c(F)c2)C(=O)N1 (stereo partly drawn) [Compound 98, 2-(6,7-dihydro-5H-pyrrolo[1,2-c]imidazol-1-yl)-2-[6-[4-[2-[2-[1-[4-[[(3R)-2,6-dioxo-3-piperidyl]-amino]-2-fluoro-phenyl]-4-hydroxy-4-piperidyl]acetyl]-2,6-diazaspiro[3.3]heptan-6-yl]phenyl]-4-fluoro-1-oxo-isoindolin-2-yl]-N-thiazol-2-yl-acetamide] | – |
| – | < 50 nM | – | – | – | – | N#Cc1cc(NC2CCC(=O)NC2=O)ccc1C1CCN(CC(=O)N2CCN(c3ccc(-c4cc(F)c5c(c4)C(=O)N(C(C(=O)Nc4nccs4)c4ncn6c4CCC6)C5)cc3)CC2)CC1 (stereo not drawn) [Compound 14, 2-[6-[4-[4-[2-[4-[2-cyano-4-[(2,6-dioxo-3-piperidyl)amino]phenyl]-1-piperidyl]acetyl]piperazin-1-yl]phenyl]-4-fluoro-1-oxo-isoindolin-2-yl]-2-(6,7-dihydro-5H-pyrrolo[1,2-c]imidazol-1-yl)-N-thiazol-2-yl-acetamide] | DC50 (EGFR L858R-T790M-C797S; Table 9A, NCI-H1975+CS cells, Total EGFR HTRF, read-out: H1975+ CS EGFR DC50): < 50 nM; DC50 (EGFR L858R; Table 9A, NCI-H3255 cells, Total EGFR HTRF, read-out: H3255 EGFR DC50): < 50 nM |
